# Literature values in patent US20020137779A1, “Use of L-2-oxothiazolidine-4-carboxylic acid for the treatment of type 2 diabetes” (Advanced Biochemicals Inc., priority 2001, published 2002).
# Tested on: mice
# Conditions: oral administration at 9.5 mmol/kg in mice; cited from earlier work
structure (smiles),measurement,value
"CC(=O)Nc1ccc(O)cc1 [acetaminophen, reference compound]",mortality,more than 90%
